According to patent publication US11479611B2 (China Medical University Hospital, priority 2019, dated 2022):

How the values were obtained:
Format in all cases: cell-based
[1] = system: human breast cancer cell line MDA-MB-231; experiment: tumor cell death (cytotoxicity), Annexin V-FITC/PI flow cytometry; details: treated alone; doxorubicin 200 nM or 1×10^5 parental cells
Procedure: (§1) The cells are subsequently incubated for 24 hours. […] In a control, the tumor cells are untreated.
as §1

[2] = system: HLA-G on the plasma membrane of the human breast cancer cell line MDA-MB-231; experiment: HLA-G expression level of tumor cells by flow cytometry; details: 200 nM, 48 hours, compared to untreated control, p<0.001
Procedure: First, the human breast cancer cell line MDA-MB-231, the human malignant brain tumor cell line DBTRG, the human pancreatic cancer cell line AsPC1 and the human ovarian cancer cell line SKOV3 are seeded in a 6-well plate at a density of 2×10^5 cells/well. The cells are subsequently incubated for 24 hours. Each type of the tumor cells is divided into two groups. In a control, the tumor cells are untreated. In an experiment group, the tumor cells are treated with the chemotherapy drug for 48 hours. […] Then, the HLA-G expression level of the tumor cells are detected by flow cytometry.

[3] = system: human pancreatic cancer cell line AsPC1; experiment: tumor cell death (cytotoxicity), Annexin V-FITC/PI flow cytometry; details: treated alone; gemcitabine 20 μM or 1×10^5 parental cells
Procedure: (§2) The cells are subsequently incubated for 24 hours. Each type of the tumor cells is divided into six groups. In a control, the tumor cells are untreated. In a group 1, the tumor cells are treated with the chemotherapy drug. In a group 2, the tumor cells are treated with the parental primary NK cell. In a group 3, the tumor cells are treated with the parental primary NK cell and the chemotherapy drug. In the groups 2 and 3, the number of the parental primary NK cell treated is 1×10^5 cells. In a group 4, the tumor cells are treated with the Example 1. In a group 5, the tumor cells are treated with the Example 1 and the chemotherapy drug. […] The treated cells are stained with Annexin V-FITC and propidium iodide (PI), and the apoptosis and the death of the tumor cells are detected by the flow cytometry. The sum of the percentage of cells stained with Annexin V-FITC and/or PI (that is the percentage of cells in the first quadrant, the second quadrant, and the fourth quadrant of the bivariate flow cytometry scatter plot) are calculated to obtain the cytotoxicity. The results of the cytotoxicity are counted after the three independent trials in each group.
(§3) The cells are subsequently incubated for 24 hours. […] The treated cells are stained with Annexin V-FITC and propidium iodide (PI), and the apoptosis and the death of the tumor cells are detected by the flow cytometry. […]

[4] = system: HLA-G on the plasma membrane of the human ovarian cancer cell line SKOV3; experiment: HLA-G expression level of tumor cells by flow cytometry; details: 20 μM, 48 hours, compared to untreated control, p<0.001
[5] = system: human ovarian cancer cell line SKOV3; experiment: tumor cell death (cytotoxicity), Annexin V-FITC/PI flow cytometry; details: treated alone; carboplatin 20 μM or 1×10^5 parental cells
Procedure: as §2, §3

COc1cccc2c1C(=O)c1c(O)c3c(c(O)c1C2=O)C[C@@](O)(C(=O)CO)C[C@@H]3O[C@H]1C[C@H](N)[C@H](O)[C@H](C)O1 [doxorubicin]
death rate of MDA-MB-231 compared to the control (in words) [1]: increased, but there is no statistically significant difference compared to the control | expression of HLA-G on the plasma membrane of MDA-MB-231 [2]: increase the expression of HLA-G

Nc1ccn([C@@H]2O[C@H](CO)[C@@H](O)C2(F)F)c(=O)n1 [gemcitabine]
death rate of AsPC1 compared to the control (in words) [3]: increased, but there is no statistically significant difference compared to the control

N.N.O=C([O-])C1(C(=O)[O-])CCC1.[Pt+2] [carboplatin]
expression of HLA-G on the plasma membrane of SKOV3 [4]: increase the expression of HLA-G | death rate of SKOV3 compared to the control (in words) [5]: increased, but there is no statistically significant differences compared to the control
